Assay: Release of linoleic acid in simulated intestinal fluid with 0.2% (w/v) sodium taurocholate
Assay type: physicochemical
Conditions: simulated intestinal fluid 37° C. with 0.2% (w/v) sodium taurocholate; FIG. 25B
Method: A mixture of 40% (w/w) linoleic acid, 30% (w/w) 27-Stearine, and 30% (w/w) CITREM was heated to 80° C. while stirring to allow for complete mixing, followed by cooling at 4° C. for 1 hour. […] Formulated linoleic acid microparticles were added to 3 of these 6 tubes, while unformulated linoleic acid was added to the remaining 3 tubes.

In the case of `CCCCC/C=C\C/C=C\CCCCCCCC(=O)O` [unformulated linoleic acid, linoleic acid], the “emulsification in bile-salt rich simulated intestinal fluid” value is reported as “rapidly emulsified”.
